# Values joined by “and” are separate entries in the source; they are usually repeats but may differ in a detail not shown here. Equal values may be shown once.
# System: Labrador Retrievers
# Experiment: Heart rate and body temperature recovery following 15 mile run, Example 1
# Format: in vivo, dog
# Conditions: Ex.1, 250 mg/d; for Dog body temperature after run / Heartrate after run / Temperature before run / Heartrate before run: mean ± SEM; for Temperature before run / Heartrate before run: before 15 mile run
# Source text: Each test dog wore an Actical activity monitor from Philips Respironics on a collar for the short higher intensity runs and also wore an Actical activity monitor for the weekly longer endurance runs. The activity data was downloaded into spread sheets along with each dogs identity. Twenty four hours after each long run during the 13 wk running program each of the dogs were scored by kennel staff for soreness or any type of lameness The exercise program was decreased in a tapering program during wk 11 and 12 to allow the dogs to rest for the final long run completed on wk 13. Pre-run serum samples from each test dog was taken 24 hr before the last endurance run. The heart rate and basal body temperature was determined for each test dog prior to the last long endurance run. Each performance dog also wore the Actical activity monitor during the last endurance run. The dogs were put through a 15 mile run that included mud, water, tall grass, and swimming. The dogs were timed when they completed the course. The dogs were encouraged by kennel staff that rode along in a 4 wheel all terrain type vehicle during all of the endurance runs. […] Immediately following the 15 mile endurance run, each dog was placed in a kennel and evaluated for recovery time for body temperature (every 15 minutes for 2 hr) and heart rate (every 2 minutes for 14 minutes). Twenty four hours after test dogs ran the last 15 endurance run, post-run serum samples were taken to evaluate biomarkers for muscle damage and antioxidant status. Each test dog was also scanned with the GE Prodigy DEXA to determine body composition change that occurred during the course of the 13 wk study. The dogs were timed during the last 15 mile run at the end of the study. The body temperature and heart rate for each dog was determined just prior to the long 15 mile run. The heart rate measurements were determined manually and body temperature was determined by using a rectal thermometer. Each staff member was responsible for determining the time required to complete the run for one of the test dogs in each set. Each staff member was also responsible for determining the heart rate and body temperature of their specific assigned dog immediately upon their return after the run. The heart rate was determined every 2 minutes for a fourteen minute period following the last long run and the body temperature was determined every 15 minute for a two hour period after completing the long run. The heart rate and body temperature was determined both before and after to evaluate the fitness and time required after run to reach basal HR and body temperatures.
# [1] = 0 min after 15 mile run, both sexes
# [2] = 0 min after 15 mile run, females
smiles,measurement,setting,value
C[N+](C)(C)C[C@H](O)CC(=O)[O-] [L-carnitine],Dog body temperature after run,[1],103.7 ± 0.3 n = 19 ° F.
same,Heartrate after run,[1],159 and 159 ± 4 n = 16
same,Dog body temperature after run,[2],103.6 ± 0.5 n = 9 ° F.
same,Heartrate after run,[2],155 ± 5 n = 8
same,Dog body temperature after run,"0 min after 15 mile run, males",103.8 ± 0.3 n = 10 ° F.
same,Heartrate after run,"0 min after 15 mile run, males",164 ± 6 n = 11
same,Heartrate after run,"2 min after 15 mile run, both sexes",146 ± 5 n = 16
same,Heartrate after run,"2 min after 15 mile run, females",139 ± 6 n = 8
same,Heartrate after run,"2 min after 15 mile run, males",149 ± 6 n = 11
same,Heartrate after run,"4 min after 15 mile run, both sexes",131 ± 5 n = 16
same,Heartrate after run,"4 min after 15 mile run, females",123 ± 6 n = 8
same,Heartrate after run,"4 min after 15 mile run, males",143 ± 8 n = 11
same,Heartrate after run,"6 min after 15 mile run, both sexes",123 ± 5 n = 16
same,Heartrate after run,"6 min after 15 mile run, females",120 ± 6 n = 8
same,Heartrate after run,"6 min after 15 mile run, males",131 ± 6 n = 11
same,Heartrate after run,"8 min after 15 mile run, both sexes",114 ± 4 n = 16
same,Heartrate after run,"8 min after 15 mile run, females",111 ± 6 n = 8
same,Heartrate after run,"8 min after 15 mile run, males",125 ± 6 n = 11
same,Heartrate after run,"10 min after 15 mile run, both sexes",113 ± 5 n = 16
same,Heartrate after run,"10 min after 15 mile run, females",109 ± 5 n = 8
same,Heartrate after run,"10 min after 15 mile run, males",120 ± 6 n = 11
same,Heartrate after run,"12 min after 15 mile run, both sexes",107 ± 4 n = 16
same,Heartrate after run,"12 min after 15 mile run, females",107 ± 7 n = 7
same,Heartrate after run,"12 min after 15 mile run, males",112 ± 5 n = 11
same,Heartrate after run,"14 min after 15 mile run, both sexes",101 ± 4 n = 16
same,Heartrate after run,"14 min after 15 mile run, females",103 ± 7 n = 7
same,Heartrate after run,"14 min after 15 mile run, males",102 ± 5 n = 10
same,Dog body temperature after run,"15 min after 15 mile run, both sexes",102.6 ± 0.2 n = 20 ° F.
same,Dog body temperature after run,"15 min after 15 mile run, females",102.6 ± 0.4 n = 9 ° F.
same,Dog body temperature after run,"15 min after 15 mile run, males",102.5 ± 0.2 n = 11 ° F.
same,Dog body temperature after run,"30 min after 15 mile run, both sexes",101.6 ± 0.1 n = 20 ° F.
same,Dog body temperature after run,"30 min after 15 mile run, females",101.3 ± 0.2 n = 9 ° F.
same,Dog body temperature after run,"30 min after 15 mile run, males",101.9 ± 0.1 n = 11 ° F.
same,Dog body temperature after run,"45 min after 15 mile run, both sexes",101.1 ± 0.1 n = 20 ° F.
same,Dog body temperature after run,"45 min after 15 mile run, females",101 ± 0.2 n = 9 ° F.
same,Dog body temperature after run,"45 min after 15 mile run, males",101.1 ± 0.1 n = 11 ° F.
same,Dog body temperature after run,"60 min after 15 mile run, both sexes",100.9 ± 0.2 n = 20 ° F.
same,Dog body temperature after run,"60 min after 15 mile run, females",100.8 ± 0.3 n = 9 ° F.
same,Dog body temperature after run,"60 min after 15 mile run, males",101 ± 0.2 n = 11 ° F.
same,Dog body temperature after run,"75 min after 15 mile run, both sexes",100.7 ± 0.2 n = 19 ° F.
same,Dog body temperature after run,"75 min after 15 mile run, females",100.7 ± 0.3 n = 8 ° F.
same,Dog body temperature after run,"75 min after 15 mile run, males",100.7 ± 0.2 n = 11 ° F.
same,Dog body temperature after run,"90 min after 15 mile run, both sexes",100.7 ± 0.2 n = 20 ° F.
same,Dog body temperature after run,"90 min after 15 mile run, females",100.6 ± 0.3 n = 9 ° F.
same,Dog body temperature after run,"90 min after 15 mile run, males",100.8 ± 0.2 n = 11 ° F.
same,Dog body temperature after run,"105 min after 15 mile run, both sexes",100.4 ± 0.2 n = 19 ° F.
same,Dog body temperature after run,"105 min after 15 mile run, females",100.2 ± 0.4 n = 8 ° F.
same,Dog body temperature after run,"105 min after 15 mile run, males",100.5 ± 0.2 n = 11 ° F.
same,Dog body temperature after run,"120 min after 15 mile run, both sexes",100.7 ± 0.2 n = 14 ° F.
same,Dog body temperature after run,"120 min after 15 mile run, females",100.7 ± 0.4 n = 4 ° F.
same,Dog body temperature after run,"120 min after 15 mile run, males",100.8 ± 0.2 n = 10 ° F.
same,Time to get heart rate back to basal levels,"after 15 mile run, both treatments required this time",approximately 14 minutes
same,Temperature before run,both sexes,101.3 ± 0.2 n = 20 ° F.
same,Heartrate before run,females,89 ± 3 n = 9
same,Temperature before run,females,101.0 ± 0.1 n = 9 ° F.
same,Heartrate before run,males,89 ± 3 n = 11
same,Temperature before run,males,101.7 ± 0.4 n = 11 ° F.
same,Heart rate and body temperature recovery vs control,following the final long run,not different
same,Time back to pre-run core temperature,"males, following 15 mile run, both groups",30 to 45 min

# From patent US10016382B2, “Method for decreasing skeletal muscle damage and/or oxidative stress in mammals” (LONZA INC., priority 2014, dated 2018)
